This note sets out measurements from article PMC4127532 (Journal of Medicinal Chemistry, 2014).

This assay deals with A/England/195/2009 (H1N1), M2/N31. Format: cell-based. The following applies: 100 μM.

Consider `NC1C2CC3CC(C2)CC1C3` (stereo not shown) [Compound 3], for which the “% block after 30 min” value is on record as 16 (100 μM; 1) %.
